The values below come from patent EP0606463B1, “NEUROMEDIN B RECEPTOR ANTAGONISTS” (The Administrators of The Tulane Educational Fund, priority 1992, dated 1994).

Where a SMILES comes first, the peptide text is derived from it. Bridges are numbered along the chain shown (N, C = ends). [ ]: non-standard residue; d: D form. 2Nal = N[C@@H](Cc1ccc2ccccc2c1)C(=O)O; d2Nal = N[C@H](Cc1ccc2ccccc2c1)C(=O)O

In one assay the target is T1, GRP Receptor (Rattus norvegicus, UniProt P52500).
T1 construct: from tissue; host or cells: dispersed pancreatic acini
T1 sequence (P52500 whole entry): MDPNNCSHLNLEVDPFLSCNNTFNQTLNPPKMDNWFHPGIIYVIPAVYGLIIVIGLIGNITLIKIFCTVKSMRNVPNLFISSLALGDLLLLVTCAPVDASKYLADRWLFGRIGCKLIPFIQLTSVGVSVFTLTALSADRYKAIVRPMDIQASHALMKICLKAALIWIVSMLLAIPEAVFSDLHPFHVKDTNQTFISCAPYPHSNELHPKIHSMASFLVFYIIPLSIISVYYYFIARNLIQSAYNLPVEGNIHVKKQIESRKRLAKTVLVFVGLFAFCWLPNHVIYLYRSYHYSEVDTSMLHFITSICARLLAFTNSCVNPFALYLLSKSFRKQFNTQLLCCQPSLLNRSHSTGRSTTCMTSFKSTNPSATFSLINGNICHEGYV
The assay is described as follows: Amylase release from rat pancreatic acini. It is filed as cell-based.

Assay [1] addresses T2, NMB receptors on C-6 glioblastoma cells (Rattus norvegicus, UniProt P24053).
T2 construct: endogenous in cells; host or cells: rat glioblastoma C-6 cells
T2 sequence (P24053 1-390): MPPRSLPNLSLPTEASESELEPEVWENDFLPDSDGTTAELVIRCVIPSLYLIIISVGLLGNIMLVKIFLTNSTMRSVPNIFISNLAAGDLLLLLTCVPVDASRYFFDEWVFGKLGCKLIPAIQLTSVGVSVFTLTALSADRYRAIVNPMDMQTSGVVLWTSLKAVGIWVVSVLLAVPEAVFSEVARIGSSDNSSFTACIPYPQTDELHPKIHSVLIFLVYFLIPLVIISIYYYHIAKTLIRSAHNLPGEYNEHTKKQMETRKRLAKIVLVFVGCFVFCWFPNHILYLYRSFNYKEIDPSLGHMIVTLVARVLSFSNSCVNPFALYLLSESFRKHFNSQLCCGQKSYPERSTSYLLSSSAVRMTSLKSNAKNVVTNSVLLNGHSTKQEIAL
The assay is described as follows: NMB-stimulated [3H]IP in C-6 glioblastoma cells. It is filed as cell-based. Here is the method: Total phosphoinositides in C-6 cells and in NMB-R transfected cells were determined as described previously, with minor modifications [Benya, R. V. et al. Mol. Pharmacol. 42:1058 (1992); and Wang, L-H. et al. Biochem. J. 286:641 (1992)]. Cells were grown to confluence in 24-well plates and then loaded with 100 µCi/ml myo-[2-^3H]inositol in Dulbecco's modified essential medium with 2% fetal bovine serum at 37°C for 48 hrs. Cells were washed and incubated in phosphoinositide buffer (standard buffer additionally containing 10 mM LiCl, 20 mM HEPES, 2 mM CaCl2, 2% BSA, and 1.2 mM MgSO4) for 15 min and then […] Reactions were halted using ice-cold 1% HCl in methanol, and the inositol phosphates (IP) were isolated as described previously [Bologna, M. et al. Cancer 63:1714 (1989); and Endo, T. et al. J. Endocrinol. 131:313 (1991)]. Briefly, after loading of the anion exchange column, free [^3H]glycerophosphorylinositol was removed by washing with 5 mM disodium tetraborate in 60 mM sodium formate. Total [^3H]inositol phosphates were then eluted using 100 mM formic acid in 1.0 M ammonium formate as described previously [Benya, R. V. et al. Mol. Pharmacol. 42:1058 (1992); and Wang, L-H. et al. Biochem. J. 286:641 (1992)].

In assay [2] the test system is endothelin-1-simulated increases in [^3H]IP. The assay is described as follows: Endothelin-1-stimulated [3H]IP in C-6 glioblastoma cells. The conditions noted are these: for effect on endothelin-1-simulated increases in [^3H]IP in C-6 cells: Table 3. It is filed as cell-based, rat. As for the experimental part: Total phosphoinositides in C-6 cells and in NMB-R transfected cells were determined as described previously, with minor modifications [Benya, R. V. et al. Mol. Pharmacol. 42:1058 (1992); and Wang, L-H. et al. Biochem. J. 286:641 (1992)]. Cells were grown to confluence in 24-well plates and then loaded with 100 µCi/ml myo-[2-^3H]inositol in Dulbecco's modified essential medium with 2% fetal bovine serum at 37°C for 48 hrs. Cells were washed and incubated in phosphoinositide buffer (standard buffer additionally containing 10 mM LiCl, 20 mM HEPES, 2 mM CaCl2, 2% BSA, and 1.2 mM MgSO4) for 15 min and then for 60 min at 37°C with agonists at various concentrations or with 3 nM NMB (a half-maximal effective concentration) and possible antagonists at different concentrations. Reactions were halted using ice-cold 1% HCl in methanol, and the inositol phosphates (IP) were isolated as described previously [Bologna, M. et al. Cancer 63:1714 (1989); and Endo, T. et al. J. Endocrinol. 131:313 (1991)]. Briefly, after loading of the anion exchange column, free [^3H]glycerophosphorylinositol was removed by washing with 5 mM disodium tetraborate in 60 mM sodium formate. Total [^3H]inositol phosphates were then eluted using 100 mM formic acid in 1.0 M ammonium formate as described previously [Benya, R. V. et al. Mol. Pharmacol. 42:1058 (1992); and Wang, L-H. et al. Biochem. J. 286:641 (1992)].

In assay [3] the target is T3, NMB receptors on rat olfactory bulb membranes (Rattus norvegicus, UniProt P24053).
T3 construct: Membranes were prepared from rat olfactory bulb (NMB membrane receptor assay); from tissue; host or cells: rat olfactory bulb membranes
T3 sequence (P24053 1-390): T2 sequence (P24053 1-390)
The assay is described as follows: NMB membrane receptor assay (rat olfactory bulb membranes). Type of assay: binding.

A further assay deals with T4, CCKA receptors (Rattus norvegicus, UniProt P30551).
T4 construct: rat pancreas (CCKA receptor assay); from tissue; host or cells: rat pancreatic membranes
T4 sequence (P30551 whole entry): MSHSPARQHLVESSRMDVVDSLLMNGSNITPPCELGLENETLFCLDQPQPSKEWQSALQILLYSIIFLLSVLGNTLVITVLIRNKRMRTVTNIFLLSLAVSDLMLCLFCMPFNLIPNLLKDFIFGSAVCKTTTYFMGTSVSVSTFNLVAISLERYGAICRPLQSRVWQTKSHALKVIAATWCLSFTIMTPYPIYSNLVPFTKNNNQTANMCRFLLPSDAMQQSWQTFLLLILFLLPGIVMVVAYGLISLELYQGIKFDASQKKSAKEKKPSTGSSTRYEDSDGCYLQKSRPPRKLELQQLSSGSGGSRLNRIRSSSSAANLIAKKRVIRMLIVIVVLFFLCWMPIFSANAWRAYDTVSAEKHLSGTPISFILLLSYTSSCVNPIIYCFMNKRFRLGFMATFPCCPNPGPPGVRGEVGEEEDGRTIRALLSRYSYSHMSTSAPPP
The assay is described as follows: CCKA receptor assay (125I-CCK-8, rat pancreatic membranes). It is filed as binding. To be noted: at 1 µM.

In the next assay the test system is bradykinin1. The assay is described as follows: Bradykinin membrane receptor assay. It is filed as binding. The conditions noted are these: at 1 µM.
In another assay the test system is TRH receptor. In words: TRH membrane assay. To be noted: at 1 µM. It is filed as binding, rat.
The next assay relates to benzodiazepine-neural. In words: Neural benzodiazepine membrane receptor assay. The conditions noted are these: at 1 µM. Type of assay: binding, rat.
In the next assay the target is T5, histamine H1 (Cavia porcellus, UniProt P31389).
T5 construct: guinea pig cerebral (N1, histamine H1, and sigma opioid membrane receptor assays); from tissue; host or cells: guinea pig cerebral membranes
T5 sequence (P31389 whole entry): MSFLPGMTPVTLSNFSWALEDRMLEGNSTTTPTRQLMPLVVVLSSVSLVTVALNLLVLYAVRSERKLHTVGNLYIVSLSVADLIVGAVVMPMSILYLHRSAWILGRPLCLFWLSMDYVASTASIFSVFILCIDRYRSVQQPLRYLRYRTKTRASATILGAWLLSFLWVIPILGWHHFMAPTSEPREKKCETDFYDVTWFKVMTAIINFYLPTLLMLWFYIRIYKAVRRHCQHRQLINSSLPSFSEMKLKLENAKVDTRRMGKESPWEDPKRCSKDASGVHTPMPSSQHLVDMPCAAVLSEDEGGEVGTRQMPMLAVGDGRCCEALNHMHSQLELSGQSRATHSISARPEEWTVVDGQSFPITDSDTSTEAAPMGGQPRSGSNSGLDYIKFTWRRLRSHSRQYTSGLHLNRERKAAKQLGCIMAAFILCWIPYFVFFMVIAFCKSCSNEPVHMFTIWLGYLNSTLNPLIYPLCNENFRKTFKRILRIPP
In words: histamine H1 membrane receptor assay. Type of assay: binding, guinea pig. The conditions noted are these: at 1 µM.

For a further assay, the target named is T6, delta opioid (Rattus norvegicus, UniProt P33533).
T6 construct: rat forebrain (TRH, mu and delta opioid membrane assays); from tissue; host or cells: rat forebrain membranes
T6 sequence (P33533 whole entry): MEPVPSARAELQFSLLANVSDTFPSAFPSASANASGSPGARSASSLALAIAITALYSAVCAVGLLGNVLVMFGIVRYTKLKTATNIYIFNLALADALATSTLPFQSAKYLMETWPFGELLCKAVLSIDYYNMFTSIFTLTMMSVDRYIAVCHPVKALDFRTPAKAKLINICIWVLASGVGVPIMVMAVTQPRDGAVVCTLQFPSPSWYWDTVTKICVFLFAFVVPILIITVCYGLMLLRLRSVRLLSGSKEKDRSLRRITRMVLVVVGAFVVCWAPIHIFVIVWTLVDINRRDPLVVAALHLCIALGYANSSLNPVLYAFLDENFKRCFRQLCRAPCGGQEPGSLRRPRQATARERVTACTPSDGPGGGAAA
The assay is described as follows: delta opioid membrane assay. To be noted: at 1 µM. It is filed as binding.

On to `CC(C)[C@@H]1NC(=O)[C@H](CCCCN)NC(=O)[C@@H](Cc2c[nH]c3ccccc23)NC(=O)[C@H](Cc2ccc(O)cc2)NC(=O)[C@@H](NC(=O)[C@H](N)Cc2ccc3ccccc3c2)CSSC[C@@H](C(=O)N[C@@H](Cc2ccc3ccccc3c2)C(N)=O)NC1=O` [Analog #1, D-Nal-Cys-Tyr-D-Trp-Lys-Val-Cys-Nal-NH2] (H-[d2Nal]CY[dW]KVC[2Nal]-NH2; disulfide 2-7; N-terminus assumed), for which, on GRP Receptor (analog 10 µM alone, no-additive control 4 ± 1), the “Rat Pancreatic Acini Amylase Release Alone (10µM)” value stood at 5 ± 1 % total. Besides, the “Rat Pancreatic Acini Amylase Release Plus Bn(0.3 nM)” value on GRP Receptor (analog 10 µM plus Bn 0.3 nM, Bn without analog 15 ± 1) is given as 15 ± 2 % total. In addition, the “effect on Bn-stimulated amylase release” value on GRP Receptor (rat pancreatic acini, Bn 0.3 nM, peptide 10 µM) is on record as “did not inhibit”. In addition, the “[^3H]IP, Peptide Added NMB (10 nM)” value in [1] (C-6 glioblastoma cells, analog 10 µM plus NMB 10 nM) was 7.5 ± 1.0 dpm x 10^3. Also, in assay [1] (C-6 glioblastoma cells, analog 10 µM, no agonist, control 7.2±1.0), the “[^3H]IP, Peptide Added None” value is 7.4 ± 1.3 dpm x 10^3. Further, the “effect on NMB-stimulated increases in [^3H]IP in C-6 glioblastoma cells” value in [1] (Table 3) is listed as “inhibited”. Also, in assay [2] (C-6 glioblastoma cells, analog 10 µM plus ET-1 0.1 nM), the “[^3H]IP, Peptide Added ET-1 (0.1 nM)” value is recorded as 10.9 ± 1.8 dpm x 10^3. Also, the “effect on endothelin-1-simulated increases in [^3H]IP in C-6 cells” value in assay [2] is “had no effect”; in assay [2] (listed as Cycle SS-octa), “did not inhibit”. The inhibition (in general, the drop in the measured response relative to a control, in per cent) at 1 µM in assay [3] (at 1 µM, read-out: inhibition of binding to NMB receptors on rat olfactory bulb membranes) was more than 95%. For the same compound, the “fold greater affinity for NMB receptors than mu opioid receptors” value in [3] (rat olfactory bulb versus rat forebrain membranes (Table 4)) is 10 fold. Moreover, at CCKA receptors, the “inhibition of binding to CCKA” value is on record as “did not inhibit binding”. The “inhibition of binding to bradykinin1” value with bradykinin1 is reported as “did not inhibit binding”. The “inhibition of binding to TRH” value in the assay with TRH receptor is reported as “did not inhibit binding”. In the assay on benzodiazepine-neural, the “inhibition of binding to benzodiazepine-neural” value is on record as “did not inhibit binding”. Also, at histamine H1, the “inhibition of binding to histamine H1” value was “did not inhibit binding”. Moreover, the “inhibition of binding to delta opioid” value at delta opioid is “did not inhibit binding”.
